What was measured:
[1] = system: MEL cells; assay: Inhibitor treatment of MEL cells, real-time RT-PCR of globin mRNA; assay type: cell-based, Mouse; settings: for effect on expression levels of Hbb-b1/2 (adult globin): 48 hours treatment
Protocol: For studies testing inhibitors on MEL cells, the cells were treated with selected inhibitors or vehicle in culture medium (RPMI 1640 medium with 10% fetal bovine serum) for 48 hours and were subsequently harvested and analyzed for relative mRNA levels of Hbb-bh1 and Hbb-y using real-time RT-PCR.
Primers as used in the Examples as described herein are summarized below.

[2] = system: human CD34+ HSPCs; assay: Real-time RT-PCR of globin mRNA in erythroid cells differentiated from human CD34+ HSPCs; assay type: cell-based; settings: 14 days of differentiation; for α-globin mRNA levels: vs DMSO (FIG. 8B)
Protocol: Human CD34^+ HSPCs treated with PTC596 (PTC) or MI-3454 (MI) at indicated concentrations or vehicle (DMSO) were induced to undergo erythroid differentiation. Cells were harvested after 14 days of differentiation for real-time RT-PCR analysis of human fetal γ (FIG. 8A), embryonic […] (FIG. 8B), and adult β (FIG. 8C) globin mRNA levels. Relative expression levels were calculated by normalizing to GAPDH mRNA levels in the same sample and also to cells treated with DMSO.
(§1) Primary human mobilized CD34^+ HSPCs (StemCell Technologies Inc.) were initially cultured in expansion medium containing StemSpan-XF Medium (StemCell Technologies Inc.) with 1× CC 100 cytokine mix (StemCell Technologies Inc.). Cells were maintained in this expansion medium at a density of 0.1-1×10^6 cells/ml for a total of 4 days with media changes every two days. On day 4, cells were induced to undergo erythroid differentiation in three phases as known in the art. Briefly, base medium for differentiation contains Iscove's Modified Dulbecco's Medium plus 2% human peripheral blood plasma (Innovative Research), 3% human AB serum (Sigma), […] human holo-transferrin (Sigma), 3 IU/mL heparin (Sigma), […] human insulin (Sigma), and 1% Penicillin-Streptomycin (Life Technologies Inc.). In the first phase (day 0 to day 6), cells were cultured at a concentration of 10^5 cells/ml in the presence of 10 ng/mL human stem cell factor (Biolegend), 1 ng/mL human IL-3 (Biolegend), and 3 IU/mL human erythropoietin (Janssen). In the second phase (day 7 to day 11), IL-3 was omitted from the first phase culture medium. In the third phase (day 12 to day 16), both stem cell factor and IL-3 were omitted and the concentration of transferrin was adjusted to 1 mg/ml. Cell density also was adjusted to 10^6 cells/ml in the beginning of this phase. Drug treatments were started at day 2 of expansion condition and maintained thereafter. New drugs were added every 1-2 days with medium change.
The effects of PTC596 and MI-3454 on human fetal (γ) and embryonic (ε) globin expression in erythroid cells produced in culture from primary human CD34^+ hematopoietic stem and progenitor cells (HSPCs) were further tested. […] PTC596, MI-3454, or control DMSO were added to the culture from day 2 of the expansion phase and were replenished upon media change every two days.

[3] = system: γ-Globin; assay: Western blotting of γ-Globin in erythroid-differentiated human CD34+ HSPCs; assay type: cell-based; settings: erythroid differentiation 14 days
Protocol: (§2) Western blotting analysis of protein levels of […], BMI1, MEN1, and control ACTIN in CD34^+ HSPCs were treated with PTC596 (PTC) at indicated concentrations (FIG. 9A), MI-3454 (MI) at indicated concentrations (FIG. 9B), or DMSO and induced to undergo erythroid differentiation for 14 days.
as §1, with “In the second phase (day 7 to day 11), IL-3 was omitted from the first phase culture medium. In the third phase (day 12 to day 16), both stem cell factor and IL-3 were omitted and the concentration of transferrin was adjusted to 1 mg/ml. Cell density also was adjusted to 10^6 cells/ml in the beginning of this phase. Drug treatments were started at day 2 of expansion condition and maintained thereafter. New drugs were added every 1-2 days with medium change.” left out

[4] = target: T1, MEN1 (Homo sapiens, UniProt O00255); assay: Western blotting of MEN1 (MENIN) in erythroid-differentiated human CD34+ HSPCs; assay type: cell-based; settings: erythroid differentiation 14 days
T1 construct: Western blotting analysis of protein levels of […], BMI1, MEN1, and control ACTIN in CD34^+ HSPCs; host or cells: primary human mobilized CD34+ HSPCs, erythroid differentiation for 14 days
T1 sequence (O00255 1-610): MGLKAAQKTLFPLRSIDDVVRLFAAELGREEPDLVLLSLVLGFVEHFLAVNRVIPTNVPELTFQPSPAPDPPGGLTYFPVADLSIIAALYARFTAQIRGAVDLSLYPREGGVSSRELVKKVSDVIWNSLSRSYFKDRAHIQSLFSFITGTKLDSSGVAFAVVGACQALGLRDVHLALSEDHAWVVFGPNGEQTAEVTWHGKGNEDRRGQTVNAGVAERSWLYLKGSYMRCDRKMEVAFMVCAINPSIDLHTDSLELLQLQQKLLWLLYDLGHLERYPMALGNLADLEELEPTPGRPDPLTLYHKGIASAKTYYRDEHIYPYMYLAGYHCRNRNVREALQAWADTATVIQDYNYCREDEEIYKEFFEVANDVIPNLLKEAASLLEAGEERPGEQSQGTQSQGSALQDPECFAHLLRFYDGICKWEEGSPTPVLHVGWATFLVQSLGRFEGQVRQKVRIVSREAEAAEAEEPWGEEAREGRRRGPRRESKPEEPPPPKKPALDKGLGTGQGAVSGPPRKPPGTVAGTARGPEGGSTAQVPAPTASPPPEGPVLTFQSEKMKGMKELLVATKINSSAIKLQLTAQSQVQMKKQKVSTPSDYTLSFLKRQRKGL
Protocol: as §2
as §1, with “In the second phase (day 7 to day 11), IL-3 was omitted from the first phase culture medium. In the third phase (day 12 to day 16), both stem cell factor and IL-3 were omitted and the concentration of transferrin was adjusted to 1 mg/ml. Cell density also was adjusted to 10^6 cells/ml in the beginning of this phase. Drug treatments were started at day 2 of expansion condition and maintained thereafter. New drugs were added every 1-2 days with medium change.” left out

[5] = system: human CD34+ HSPCs; assay: Flow cytometry of F-cells (anti-HbF) in cultures of human CD34+ HSPCs; assay type: cell-based; settings: erythroid differentiation 14 days
Text: Cells were fixed with glutaraldehyde, permeabilized, and stained with a PE-conjugated anti-HbF antibody. The percentages of F-cells are indicated.
as §1, with “In the third phase (day 12 to day 16), both stem cell factor and IL-3 were omitted and the concentration of transferrin was adjusted to 1 mg/ml. Cell density also was adjusted to 10^6 cells/ml in the beginning of this phase. Drug treatments were started at day 2 of expansion condition and maintained thereafter. New drugs were added every 1-2 days with medium change.” left out

[6] = system: human CD34+ HSPCs; assay: Cytospin analysis of erythroid differentiation of human CD34+ HSPCs; assay type: cell-based; settings: after 14 days of differentiation
Protocol: FIG. 7 is a cytospin analysis showing erythroblasts and reticulocytes in cultures of human CD34^+ HSPCs treated with PTC596 and MI-3454 and induced to undergo erythroid differentiation for 14 days. Cells were stained using Hema 3 staining system (Fisher Scientific). Scale bar, […].
as §1, with “In the second phase (day 7 to day 11), IL-3 was omitted from the first phase culture medium. In the third phase (day 12 to day 16), both stem cell factor and IL-3 were omitted and the concentration of transferrin was adjusted to 1 mg/ml. Cell density also was adjusted to 10^6 cells/ml in the beginning of this phase. Drug treatments were started at day 2 of expansion condition and maintained thereafter. New drugs were added every 1-2 days with medium change.” left out

[7] = target: T2, BMI1 (Homo sapiens, UniProt P35226); assay: Western blotting of BMI1 in erythroid-differentiated human CD34+ HSPCs; assay type: cell-based; settings: erythroid differentiation 14 days
T2 construct: Western blotting analysis of protein levels of […], BMI1, MEN1, and control ACTIN in CD34^+ HSPCs; host or cells: primary human mobilized CD34+ HSPCs, erythroid differentiation for 14 days
T2 sequence (P35226 1-326): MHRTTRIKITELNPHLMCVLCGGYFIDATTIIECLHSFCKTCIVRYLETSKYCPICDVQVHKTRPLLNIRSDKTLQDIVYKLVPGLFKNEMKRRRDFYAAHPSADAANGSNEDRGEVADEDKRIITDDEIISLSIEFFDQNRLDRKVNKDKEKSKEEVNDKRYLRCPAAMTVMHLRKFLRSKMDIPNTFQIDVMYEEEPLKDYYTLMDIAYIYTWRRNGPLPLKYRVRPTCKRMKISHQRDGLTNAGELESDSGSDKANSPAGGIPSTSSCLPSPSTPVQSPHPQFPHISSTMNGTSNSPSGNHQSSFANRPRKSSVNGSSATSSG
Protocol: as §2
as §1, with “In the second phase (day 7 to day 11), IL-3 was omitted from the first phase culture medium. In the third phase (day 12 to day 16), both stem cell factor and IL-3 were omitted and the concentration of transferrin was adjusted to 1 mg/ml. Cell density also was adjusted to 10^6 cells/ml in the beginning of this phase. Drug treatments were started at day 2 of expansion condition and maintained thereafter. New drugs were added every 1-2 days with medium change.” left out

[8] = tested concentrations, 48 hours
[9] = 50 nM, 48 hours, relative to DMSO, normalized to Rpl4

| SMILES | effect on expression levels of Hbb-b1/2 (adult globin) [1] | Hbb-bh1 mRNA levels [1, 8] | Hbb-y mRNA levels [1, 8] | percentage of γ-globin expression levels in total β-like globin (β+γ+ε) expression levels ([2]; vs DMSO) | β-globin mRNA levels ([2]; vs DMSO) | γ-globin mRNA levels ([2]; vs DMSO) | α-globin mRNA levels [2] | γ-Globin protein levels [3] | MENIN protein levels [4] | percentage of F-cells [5] | erythroid differentiation (erythroblasts and reticulocytes observed) [6] | increase of Hbb-bh1 mRNA levels [1, 9] [fold] | increase of Hbb-y mRNA levels [1, 9] [fold] | BMI1 protein levels [7] |
| --- | --- | --- | --- | --- | --- | --- | --- | --- | --- | --- | --- | --- | --- | --- |
| CNc1nc(NC2CCN(Cc3ccc4c(cc(C#N)n4CC45CC(NC=O)(C4)C5)c3C)CC2)c2cc(CC(F)(F)F)sc2n1 [MI-3454] | minor changes | significant increases | significant increases | significant increase | increase | significantly increased | significantly increased | increased | reduced | higher percentage | not blocked | – | – | – |
| Cc1nc2ccc(F)cc2n1-c1nc(N)c(F)c(Nc2ccc(C(F)(F)F)cc2)n1 [PTC596] | minimal effects | – | – | significant increase | – | significantly increased | significantly increased | increased | – | higher percentage | not blocked | ~20 | ~15 | reduced |
| CCN(C(=O)c1cc(F)ccc1Oc1cncnc1N1CC2(CCN(C[C@H]3CC[C@H](NS(=O)(=O)CC)CC3)CC2)C1)C(C)C [SNDX-5613] | – | significantly increased | – | – | – | – | – | – | – | – | – | – | – | – |

Reference: US20240100049A1, “REACTIVATION OF EMBRYONIC AND FETAL HEMOGLOBIN” (The Henry M. Jackson Foundation for the Advancement of …, priority 2021, published 2024)
